Results: patent US12371454B2, “Cyclic peptide compound having Kras inhibitory action” (priority 2019, dated 2025)
Starred links: 1 amine or outer side, 2 acyl side, 3 side chain; linkers in the order of their positions; H or OH if unused. Positions of bridges follow the written chain, without caps; N, C: chain ends. Non-standard residues stand in square brackets, D forms with d. Residues, ends and D or L forms follow the SMILES beside them. *: point of attachment. hPhe(3-Cl-4-CF3) = N[C@@H](CCc1ccc(C(F)(F)F)c(Cl)c1)C(=O)O; hPhe(3-F,4-CF3) = N[C@@H](CCc1ccc(C(F)(F)F)c(F)c1)C(=O)O; Pro(cis-4-Ph) = O=C(O)[C@@H]1C[C@H](c2ccccc2)CN1; 3Oxa8azabicyclo(3.2.1)octane = C1CC2COCC1N2*; NMePhe(4-Cl) = CN[C@@H](Cc1ccc(Cl)cc1)C(=O)O; NMePhe(4-Me) = CN[C@@H](Cc1ccc(C)cc1)C(=O)O; NMePhe(4-I) = CN[C@@H](Cc1ccc(I)cc1)C(=O)O; NMedβ3hAla = C[C@H](CC(=O)[*:2])N(C)[*:1]; NMeGly(cPent) = CN[C@H](C(=O)O)C1CCCC1; NMe3Pal = CN[C@@H](Cc1cccnc1)C(=O)O; NMeGly(cBu) = CN[C@H](C(=O)O)C1CCC1; NMeCha = CN[C@@H](CC1CCCCC1)C(=O)O; NMeChg = CN[C@H](C(=O)O)C1CCCCC1; NMeI = CC[C@H](C)[C@H](NC)C(=O)O; NMeT = CN[C@H](C(=O)O)[C@@H](C)O; NMeD = CN[C@@H](CC(=O)O)C(=O)O; NMeHpra = C#CCC[C@H](NC)C(=O)O; NMeL = CN[C@@H](CC(C)C)C(=O)O; NEtAla = CCN[C@@H](C)C(=O)O; NMeNva = CCC[C@H](NC)C(=O)O; NMeV = CN[C@H](C(=O)O)C(C)C; d(β3hA) = C[C@@H](N)CC(=O)O; NMeS = CN[C@@H](CO)C(=O)O; NMeA = CN[C@@H](C)C(=O)O; Piperidide = C1CCN(*)CC1; Ac5c = NC1(C(=O)O)CCCC1; Aze = O=C(O)[C@@H]1CCN1; Sar = CNCC(=O)O; Propyl = CCC*

test system: Human pancreatic cancer cell line AsPC-1; assay: Measurement of AsPC-1 cell growth inhibition (AsPC-1 CGI); type: cell-based; conditions: 96 h
Outline: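 AsPC-1 cells in 15% FBS RPMI-1640 were exposed to test compound for 96 hours at 37° C, with CellTiter-Glo as endpoint.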

Compound	IC50 [nM]
CC[C@H](C)[C@@H]1NC(=O)[C@H](CC(C)C)N(C)C(=O)C[C@@H](C(=O)N2CCCCC2)N(C)C(=O)[C@H](C(C)C)N(C)C(=O)C2(CCCC2)NC(=O)[C@@H]2CCCN2C(=O)[C@H](CCc2ccc(C(F)(F)F)c(Cl)c2)NC(=O)CN(C)C(=O)[C@H]([C@@H](C)OC)N(C)C(=O)[C@@H]2CCN2C(=O)[C@H](C)N(C)C1=O [Compound 929] ([NMeL]I[NMeA][Aze][NMeT](Me)[Sar][hPhe(3-Cl-4-CF3)]P[Ac5c][NMeV][NMeD]-Piperidide; lactam N-11)	100 to 500
CC[C@H](C)[C@@H]1NC(=O)[C@H](C2CCC2)N(C)C(=O)C[C@@H](C(=O)N2CCCCC2)N(C)C(=O)[C@H]([C@@H](C)CC)N(C)C(=O)C2(CCCC2)NC(=O)[C@@H]2CCCN2C(=O)[C@H](CCc2ccc(C(F)(F)F)c(Cl)c2)NC(=O)CN(C)C(=O)[C@H](CC2CCCCC2)N(C)C(=O)[C@@H]2CCN2C(=O)[C@H](C)N(C)C1=O [Compound 959] ([NMeGly(cBu)]I[NMeA][Aze][NMeCha][Sar][hPhe(3-Cl-4-CF3)]P[Ac5c][NMeI][NMeD]-Piperidide; lactam N-11)	20 to 50
CC[C@H](C)[C@@H]1NC(=O)[C@H](CC(C)C)N(C)C(=O)C[C@@H](C(=O)N2CCCCC2)N(C)C(=O)[C@H](C2CCCCC2)N(C)C(=O)C2(CCCC2)NC(=O)[C@@H]2C[C@H](c3ccccc3)CN2C(=O)[C@H](CCc2ccc(C(F)(F)F)c(Cl)c2)NC(=O)CN(C)C(=O)[C@H](CC2CCCCC2)N(C)C(=O)[C@@H]2CCN2C(=O)CN(C)C1=O [Compound 960] ([NMeL]I[Sar][Aze][NMeCha][Sar][hPhe(3-Cl-4-CF3)][Pro(cis-4-Ph)][Ac5c][NMeChg][NMeD]-Piperidide; lactam N-11)	100 to 500
C#CCC[C@H]1C(=O)N[C@@H]([C@@H](C)CC)C(=O)N(C)[C@@H](C)C(=O)N2CC[C@H]2C(=O)N(C)[C@@H](Cc2ccc(I)cc2)C(=O)N(C)CC(=O)N[C@@H](CCc2ccc(C(F)(F)F)c(Cl)c2)C(=O)N2CCC[C@H]2C(=O)NC2(CCCC2)C(=O)N(C)[C@@H](C2CCCCC2)C(=O)N(C)[C@H](C)CC(=O)N1C [Compound 961] (cyclo([Ac5c][NMeChg][NMedβ3hAla][NMeHpra]I[NMeA][Aze][NMePhe(4-I)][Sar][hPhe(3-Cl-4-CF3)]P))	100 to 500
C#CCC[C@H]1C(=O)N[C@@H]([C@@H](C)CC)C(=O)N(C)[C@@H](C)C(=O)N2CC[C@H]2C(=O)N(C)[C@@H](Cc2ccc(I)cc2)C(=O)N(C)CC(=O)N[C@@H](CCc2ccc(C(F)(F)F)c(Cl)c2)C(=O)N2CCC[C@H]2C(=O)NC2(CCCC2)C(=O)N(C)[C@@H](C2CCCCC2)C(=O)N[C@H](C)CC(=O)N1C [Compound 971] (cyclo([Ac5c][NMeChg][d(β3hA)][NMeHpra]I[NMeA][Aze][NMePhe(4-I)][Sar][hPhe(3-Cl-4-CF3)]P))	100 to 500
CCC[C@H]1C(=O)N(C)[C@H](C(=O)N2CCCCC2)CC(=O)N(C)[C@@H](CC(C)C)C(=O)N[C@@H]([C@@H](C)CC)C(=O)N(C)[C@@H](C)C(=O)N2CC[C@H]2C(=O)N(C)[C@@H](CC2CCCCC2)C(=O)N(C)CC(=O)N[C@@H](CCc2ccc(C(F)(F)F)c(Cl)c2)C(=O)N2CCC[C@H]2C(=O)NC2(CCCC2)C(=O)N1C [Compound 995] ([NMeL]I[NMeA][Aze][NMeCha][Sar][hPhe(3-Cl-4-CF3)]P[Ac5c][NMeNva][NMeD]-Piperidide; lactam N-11)	100 to 500
CC[C@H](C)[C@@H]1NC(=O)[C@H](CC(C)C)N(C)C(=O)C[C@@H](C(=O)N2C3CCC2COC3)N(C)C(=O)[C@H]([C@@H](C)CC)N(C)C(=O)C2(CCCC2)NC(=O)[C@@H]2CCCN2C(=O)[C@H](CCc2ccc(C(F)(F)F)c(Cl)c2)NC(=O)CN(C)C(=O)[C@H](C2CCCC2)N(C)C(=O)[C@@H]2CCN2C(=O)[C@H](C)N(C)C1=O [Compound 1002] ([NMeL]I[NMeA][Aze][NMeGly(cPent)][Sar][hPhe(3-Cl-4-CF3)]P[Ac5c][NMeI][NMeD]-{3Oxa8azabicyclo(3.2.1)octane}; lactam N-11)	20 to 50
CCC[C@H]1C(=O)NC2(CCCC2)C(=O)N(C)[C@@H](C2CCCCC2)C(=O)N(C)[C@H](C(=O)N2CCCCC2)CC(=O)N(C)[C@@H](CC(C)C)C(=O)N[C@@H]([C@@H](C)CC)C(=O)N(C)CC(=O)N(C)CC(=O)N(C)[C@@H](CC2CCCCC2)C(=O)N(C)CC(=O)N[C@@H](CCc2ccc(C(F)(F)F)c(Cl)c2)C(=O)N1C [Compound 1005] ([NMeL]I[Sar][Sar][NMeCha][Sar][hPhe(3-Cl-4-CF3)][NMeNva][Ac5c][NMeChg][NMeD]-Piperidide; lactam N-11)	100 to 500
CC[C@H](C)[C@@H]1NC(=O)[C@H](CC(C)C)N(C)C(=O)C[C@@H](C(=O)N2CCCCC2)N(C)C(=O)[C@H](C2CCCC2)N(C)C(=O)C2(CCCC2)NC(=O)[C@@H]2CCCN2C(=O)[C@H](CCc2ccc(C(F)(F)F)c(F)c2)NC(=O)CN(C)C(=O)[C@H](Cc2ccc(C)cc2)N(C)C(=O)[C@@H]2CCN2C(=O)[C@H](C)N(C)C1=O [Compound 1008] ([NMeL]I[NMeA][Aze][NMePhe(4-Me)][Sar][hPhe(3-F,4-CF3)]P[Ac5c][NMeGly(cPent)][NMeD]-Piperidide; lactam N-11)	20 to 50
CC[C@H](C)[C@@H]1NC(=O)[C@H](C)N(C)C(=O)C[C@@H](C(=O)N2CCCCC2)N(C)C(=O)[C@H](C2CCCCC2)N(C)C(=O)C2(CCCC2)NC(=O)[C@H](Cc2cccnc2)N(C)C(=O)[C@H](CCc2ccc(C(F)(F)F)c(Cl)c2)NC(=O)CN(C)C(=O)[C@H](CC2CCCCC2)N(C)C(=O)CN(C)C(=O)CN(C)C1=O [Compound 1012] ([NMeA]I[Sar][Sar][NMeCha][Sar][hPhe(3-Cl-4-CF3)][NMe3Pal][Ac5c][NMeChg][NMeD]-Piperidide; lactam N-11)	100 to 500
CC[C@H](C)[C@@H]1NC(=O)[C@H](C(C)C)N(C)C(=O)C[C@@H](C)NC(=O)[C@H](CC(C)C)N(C)C(=O)C2(CCCC2)NC(=O)[C@H](CC(C)C)N(C)C(=O)[C@H](CCc2ccc(C(F)(F)F)c(Cl)c2)NC(=O)CN(C)C(=O)[C@H](Cc2ccc(Cl)cc2)N(C)C(=O)CN(C)C(=O)CN(C)C1=O [Compound 1014] (cyclo([Ac5c][NMeL][d(β3hA)][NMeV]I[Sar][Sar][NMePhe(4-Cl)][Sar][hPhe(3-Cl-4-CF3)][NMeL]))	100 to 500
CC[C@H](C)[C@@H]1NC(=O)[C@H](CC(C)C)N(C)C(=O)C[C@@H](C)NC(=O)[C@H](C(C)C)N(C)C(=O)C2(CCCC2)NC(=O)[C@@H]2CCCN2C(=O)[C@H](CCc2ccc(C(F)(F)F)c(Cl)c2)NC(=O)CN(C)C(=O)[C@H](Cc2ccc(Cl)cc2)N(C)C(=O)[C@@H]2CCN2C(=O)[C@H](C)N(C)C1=O [Compound 1018] (cyclo([Ac5c][NMeV][d(β3hA)][NMeL]I[NMeA][Aze][NMePhe(4-Cl)][Sar][hPhe(3-Cl-4-CF3)]P))	100 to 500
CC[C@H](C)[C@@H]1NC(=O)[C@H](CC(C)C)N(C)C(=O)C[C@@H](C)NC(=O)[C@H](C2CCCC2)N(C)C(=O)C2(CCCC2)NC(=O)[C@@H]2CCCN2C(=O)[C@H](CCc2ccc(C(F)(F)F)c(Cl)c2)NC(=O)CN(C)C(=O)[C@H](Cc2ccc(C)cc2)N(C)C(=O)[C@@H]2CCN2C(=O)[C@H](C)N(CC)C1=O [Compound 1023] (cyclo([Ac5c][NMeGly(cPent)][d(β3hA)][NMeL]I[NEtAla][Aze][NMePhe(4-Me)][Sar][hPhe(3-Cl-4-CF3)]P))	50 to 100
CCCOC[C@H]1C(=O)N(C)CC(=O)N[C@@H](CCc2ccc(C(F)(F)F)c(F)c2)C(=O)N2CCC[C@H]2C(=O)NC2(CCCC2)C(=O)N(C)[C@@H](C2CCCC2)C(=O)N(C)[C@H](C(=O)N2CCCCC2)CC(=O)N(C)[C@@H](CC(C)C)C(=O)N[C@@H]([C@@H](C)CC)C(=O)N(C)[C@@H](C)C(=O)N2CC[C@H]2C(=O)N1C [Compound 1029] ([NMeL]I[NMeA][Aze][NMeS](Propyl)[Sar][hPhe(3-F,4-CF3)]P[Ac5c][NMeGly(cPent)][NMeD]-Piperidide; lactam N-11)	20 to 50
CCCOC[C@H]1C(=O)N(C)CC(=O)N[C@@H](CCc2ccc(C(F)(F)F)c(F)c2)C(=O)N2CCC[C@H]2C(=O)NC2(CCCC2)C(=O)N(C)[C@@H](C2CCCC2)C(=O)N(C)[C@H](C(=O)N2C3CCC2COC3)CC(=O)N(C)[C@@H](CC(C)C)C(=O)N[C@@H]([C@@H](C)CC)C(=O)N(C)[C@@H](C)C(=O)N2CC[C@H]2C(=O)N1C [Compound 1030] ([NMeL]I[NMeA][Aze][NMeS](Propyl)[Sar][hPhe(3-F,4-CF3)]P[Ac5c][NMeGly(cPent)][NMeD]-{3Oxa8azabicyclo(3.2.1)octane}; lactam N-11)	20 to 50
CC[C@H](C)[C@@H]1NC(=O)[C@H](C2CCC2)N(C)C(=O)C[C@@H](C(=O)N2CCCCC2)N(C)C(=O)[C@H](C(C)C)N(C)C(=O)C2(CCCC2)NC(=O)[C@@H]2CCCN2C(=O)[C@H](CCc2ccc(C(F)(F)F)c(Cl)c2)NC(=O)CN(C)C(=O)[C@H](CC2CCCCC2)N(C)C(=O)[C@@H]2CCN2C(=O)[C@H](C)N(C)C1=O [Compound 1036] ([NMeGly(cBu)]I[NMeA][Aze][NMeCha][Sar][hPhe(3-Cl-4-CF3)]P[Ac5c][NMeV][NMeD]-Piperidide; lactam N-11)	100 to 500
CC[C@H](C)[C@@H]1NC(=O)[C@H](CC(C)C)N(C)C(=O)C[C@@H](C(=O)N2CCCCC2)N(C)C(=O)[C@H](C(C)C)N(C)C(=O)C2(CCCC2)NC(=O)[C@@H]2CCCN2C(=O)[C@H](CCc2ccc(C(F)(F)F)c(F)c2)NC(=O)CN(C)C(=O)[C@H](CC2CCCCC2)N(C)C(=O)[C@@H]2CCN2C(=O)[C@H](C)N(C)C1=O [Compound 1040] ([NMeL]I[NMeA][Aze][NMeCha][Sar][hPhe(3-F,4-CF3)]P[Ac5c][NMeV][NMeD]-Piperidide; lactam N-11)	100 to 500
CC[C@H](C)[C@@H]1NC(=O)[C@H](CC(C)C)N(C)C(=O)C[C@@H](C)N(C)C(=O)[C@H](C2CCCC2)N(C)C(=O)C2(CCCC2)NC(=O)[C@@H]2CCCN2C(=O)[C@H](CCc2ccc(C(F)(F)F)c(Cl)c2)NC(=O)CN(C)C(=O)[C@H](C2CCCC2)N(C)C(=O)[C@@H]2CCN2C(=O)[C@H](C)N(C)C1=O [Compound 1046] (cyclo([Ac5c][NMeGly(cPent)][NMedβ3hAla][NMeL]I[NMeA][Aze][NMeGly(cPent)][Sar][hPhe(3-Cl-4-CF3)]P))	20 to 50
